From patent publication US20230263853A1, “ECTOPARASITICIDE VETERINARY COMPOSITION” (priority 2020, published 2023)

How the values were obtained:
[1] = system: Aspergillus niger (ITDI Ref. No. 3008); assay: In vitro inhibition test against fungi, Table 10; assay type: cell-based; set-up: key to Inhibitory Activity (stopping power thoroughness and lasting effect): +++ = best; (−) = worst
Method: (§1) An ectoparasiticide veterinary composition of Example 1 (labelled here as PST22) was tested in an in vitro experimental laboratory to test its efficacy against conventional antibiotics used to control harmful bacteria and fungus that cause untold harm in modern poultry producers.

red mite = assay: Weekly mortality in broiler houses with red mite, trial house vs control house (Example 3); assay type: in vivo, Dermanyssus gallinae; settings: poultry, over the 28 day period; trial house 4 ml per 10 litres water, control house standard antibiotics
Method: Two broiler houses of poultry were used in the trial, a first “trial house” and a second “control house”. Mortality was recorded weekly to determine the red mite impact on the poultry.
In the trial house, the ectoparasiticide veterinary composition of Example 1 was administered to chickens via the in-line water system at a dose of 4 ml per 10 litres of clean water. The control house used the farm's standard medication program involving the administration of antibiotics (Fosfomycin and enrofloxacin). Flock performance monitoring (measuring the number of mortalities not including the standard cull numbers) was recorded weekly in each house over a 28 day period.

[2] = Average live weight and feed conversion of broiler birds, trial house vs control house (Example 4); assay type: in vivo; settings: at 28 days, trial house 1 ml per 1 litre drinking water 6 hours daily, control house antibiotics
Method: Two poultry houses were used in the trial: a “trial house” and a “control house”. Each house contained 37000 broiler birds.
In the trial house, the ectoparasiticide veterinary composition of Example 1 was administered each afternoon continuously for 6 hours at a dosage of 1 ml per 1 litre of clean drinking water. The control house used the farm's standard medication program involving the administration of antibiotics (Fosfomycin and enrofloxacin).
Average live weight of the birds in each house was recorded weekly for a 28 day period. At the end of the trial a feed conversion ration was identified.

[3] = system: Escherichia coli (ATCC25322); assay: In vitro inhibition test against bacteria, Table 5; assay type: cell-based; set-up: key to Inhibitory Activity (stopping power thoroughness and lasting effect): +++ = best; (−) = worst; settings: B diluted by 1000 times
Method: as §1, with “producers. Leading world authorities including the World Health Organisation (WHO) have graded Antimicrobial Resistance (AMR) as a serious global health issue that threatens the prevention and treatment of an increasing range of infections.” for “producers.”

[4] = system: Salmonella typhimurium (ATCC 14028); assay: In vitro inhibition test against bacteria, Table 7; assay type: cell-based; set-up: key to Inhibitory Activity (stopping power thoroughness and lasting effect): +++ = best; (−) = worst; settings: B diluted by 1000 times
Method: as §1, with “producers. Leading world authorities including the World Health Organisation (WHO) have graded Antimicrobial Resistance (AMR) as a serious global health issue that threatens the prevention and treatment of an increasing range of infections.” for “producers.”

[5] = system: Pseudomonas aeruginosa (ATCC 27853); assay: In vitro inhibition test against bacteria, Table 8; assay type: cell-based; set-up: key to Inhibitory Activity (stopping power thoroughness and lasting effect): +++ = best; (−) = worst; settings: B diluted by 1000 times
Method: as §1, with “producers. Leading world authorities including the World Health Organisation (WHO) have graded Antimicrobial Resistance (AMR) as a serious global health issue that threatens the prevention and treatment of an increasing range of infections.” for “producers.”

[6] = system: Staphylococcus aureus (ATCC 6538P); assay: In vitro inhibition test against bacteria, Table 6; assay type: cell-based; set-up: key to Inhibitory Activity (stopping power thoroughness and lasting effect): +++ = best; (−) = worst; settings: B diluted by 1000 times
Method: as §1, with “producers. Leading world authorities including the World Health Organisation (WHO) have graded Antimicrobial Resistance (AMR) as a serious global health issue that threatens the prevention and treatment of an increasing range of infections.” for “producers.”

[7] = system: Saccharomyces cerevisiae (ATCC 9763); assay: In vitro inhibition test against fungi, Table 9; assay type: cell-based; set-up: key to Inhibitory Activity (stopping power thoroughness and lasting effect): +++ = best; (−) = worst
Method: as §1

[8] = A pure (10 mm), B 1 ml/L (10 mm), Clotrimazole (10 mm)
[9] = A undiluted (10 mm), Amikacin 30 ug (6 mm)
[10] = A undiluted (10 mm), Amikacin 30 ug (8 mm)
[11] = A undiluted (10 mm), Oxacillin 1 ug (6 mm)
[12] = PST22 - B 1 ml/L (10 mm), Nystatin (10 mm)

## Clc1ccccc1C(c1ccccc1)(c1ccccc1)n1ccnc1 [Clotrimazole]
[1]; [8]
  Average of 3× trials (larger the better) Reactivity killing power: 16.06 mm
  Trial 1: 15.80 mm
  Trial 2: 16.20 mm
  Trial 3: 16.18 mm
[1]; A pure, B 1 ml/L, Clotrimazole
  Inhibitory Activity (stopping power thoroughness and lasting effect): +++

## Fosfomycin and enrofloxacin
Red mite
  mortality %: 5%
[2]
  final average live weight: 1370 g

## NCC[C@H](O)C(=O)N[C@@H]1C[C@H](N)[C@@H](O[C@H]2O[C@H](CN)[C@@H](O)[C@H](O)[C@H]2O)[C@H](O)[C@H]1O[C@H]1O[C@H](CO)[C@@H](O)[C@H](N)[C@H]1O [Amikacin]
[3]; [9]
  Average of 3× trials Reactivity Killing Power: 16.24 mm
  Trial 1: 16.20 mm
  Trial 2: 16.39 mm
  Trial 3: 16.12 mm
[3]; A undiluted, Amikacin 30 ug
  Inhibitory Activity (stopping power thoroughness and lasting effect): +++
[4]; [10]
  Average of 3× trials Reactivity Killing Power: 16.30 mm
  Trial 1: 16.12 mm
  Trial 2: 16.26 mm
  Trial 3: 16.52 mm
[4]; A undiluted, Amikacin 30 ug
  Inhibitory Activity (stopping power thoroughness and lasting effect): +++
[5]; [10]
  Average of 3× trials Reactivity Killing Power: 17.33 mm
  Trial 1: 17.89 mm
  Trial 2: 17.08 mm
  Trial 3: 17.02 mm
[5]; A undiluted, Amikacin 30 ug
  Inhibitory Activity (stopping power thoroughness and lasting effect): +++

## Cc1onc(-c2ccccc2)c1C(=O)N[C@@H]1C(=O)N2[C@@H]1SC(C)(C)[C@@H]2C(=O)O [Oxacillin]
[6]; [11]
  Average of 3× trials Reactivity Killing Power: 21.25 mm
  Trial 1: 22.82 mm
  Trial 2: 20.20 mm
  Trial 3: 20.72 mm
[6]; A undiluted, Oxacillin 1 ug
  Inhibitory Activity (stopping power thoroughness and lasting effect): +++

## C[C@@H]1[C@H](O)[C@@H](C)/C=C/C=C/CC/C=C/C=C/C=C/C=C/C(O[C@H]2O[C@H](C)[C@@H](O)[C@H](N)[C@@H]2O)CC2O[C@](O)(CC(O)C(O)CCC(O)CC(O)CC(O)CC(=O)O[C@H]1C)CC(O)C2C(=O)O (stereo partly drawn) [Nystatin]
[7]; [12]
  Average of 3× trials Reactivity Killing Power: 4 mm
  Total Mean Zone of Inhibition: 21.58 mm
  Trail 2: 21.30 mm
  Trial 1: 21.28 mm
  Trial 3: 22.17 mm
[7]; PST22 - B 1 ml/L, Nystatin
  Inhibitory Activity (stopping power thoroughness and lasting effect): +++
